These results are taken from patent US9034886B2, “4-aminoquinazoline derivatives and uses thereof” (Shanghai Institute of Pharmaceutical Industry, priority 2011, dated 2015).

The test system of series [1] is Hep3B2.1-7 human liver cancer cells. Description: In vitro anti-proliferative effect, CCK-8 method, Hep3B. Format: cell-based. The settings on record: Homo sapiens, Hep3B cell strain, CCK-8 method; for inhibition at 10 µM: compound at 10 μM; for inhibition at 100 µM: compound at 100 μM. On the procedure:
(§1) The inhibitory activities of the compounds towards Hut78 T lymphocytic leukemia cells, Jurkat E6-1 human T-cell lymphoma, PANC-1 human pancreatic cancer cells, A549 human lung cancer cells, K562 human chronic myelogenous leukemia cells, Hep3B2.1-7 human liver cancer cells, MDA-MB-435s human breast cancer cells. Colo320 human colorectal cancer cell lines, and PC-3 human prostate cancer at two concentrations of 100 μM and 10 μM were determined. The inhibition percentages were obtained through CCK-8 method.

The next series relates to HDACs. Description: In vitro inhibition of HDACs (HDAC Inhibitor Drug Screening Kit, Biovision K340-100). Format: biochemical. The protocol:
The in vitro inhibitory activities of the compounds towards HDACs were tested according to the instructions in the HDAC Inhibitor Drug Screening Kit (Biovision/Catalog #K340-100).
(1) The compounds to be tested were each individually prepared as 2 mM, 200 μM and 40 μM solutions and their inhibitory activities at these concentrations were tested.

Series [2] deals with A549 human lung cancer cells. Description: In vitro anti-proliferative effect, CCK-8 method, A549. Format: cell-based. The settings on record: Homo sapiens, A549. On the procedure: as §1
(Formazan colour is commonly taken as a measure of viable cells.)

The subject of series [3] is Jurkat E6-1 human T-cell lymphoma. Description: In vitro anti-proliferative effect, CCK-8 method, Jurkat E6-1. Format: cell-based. The settings on record: Homo sapiens, Jurkat E6.1. The protocol: as §1
A further series concerns the target HDAC1 (Homo sapiens (Human), UniProt Q13547). Description: In vitro inhibition of subtype HDAC1 (HDAC1 Inhibitor Drug Screening Kit, Biovision). Format: biochemical. The settings on record: for inhibition at 1 µM / inhibition at 10 µM: read-out: % Inhibition towards HDAC1; for inhibitory activity against HDAC1 compared with MS-275: both concentrations 10 μM and 1 μM. The protocol:
The in vitro inhibitory activities of the compounds towards the subtype HDAC1 were tested according to the instructions in the HDAC1 Inhibitor Drug Screening Kit (Biovision).
(1) The compounds to be tested were each individually prepared as 10 μM and 1 μM solutions and their inhibitory activities at these concentrations were tested.
Each dilution sample was placed in two wells and the enzyme inhibition IC50 of the compound was tested.

The test system of series [4] is Colo320 human colorectal cancer cell lines. In words: In vitro anti-proliferative effect, CCK-8 method, Colo320. The settings on record: Homo sapiens, COLO 320, Colo320 cell strain, CCK-8 method; for inhibition at 10 µM: compound at 10 μM; for inhibition at 100 µM: compound at 100 μM. Format: cell-based. The protocol: as §1
Series [5] deals with K562 human chronic myelogenous leukemia cells. In words: In vitro anti-proliferative effect, CCK-8 method, K562. The settings on record: Homo sapiens, K562. Format: cell-based. The protocol:
as §1

In series [6] the test system is Hut78 T lymphocytic leukemia cells. Description: In vitro anti-proliferative effect, CCK-8 method, Hut78. The settings on record: Homo sapiens, HuT78, read-out: Hut-78 (inhibition %). It counts as cell-based. On the procedure:
as §1

In series [7] the test system is PC-3 human prostate cancer. In words: In vitro anti-proliferative effect, CCK-8 method, PC-3. It counts as cell-based. The settings on record: Homo sapiens, PC-3 cell strain, CCK-8 method; for inhibition at 10 µM: compound at 10 μM; for inhibition at 100 µM: compound at 100 μM. On the procedure:
as §1

Series [8] concerns MDA-MB-435s human breast cancer cells. Description: In vitro anti-proliferative effect, CCK-8 method, MDA-MB-435s. Format: cell-based. The settings on record: Homo sapiens, MDA-MB-435S. The protocol:
as §1

In series [9] the test system is PANC-1 human pancreatic cancer cells. Description: In vitro anti-proliferative effect, CCK-8 method, PANC-1. Format: cell-based. The settings on record: Homo sapiens, PANC-1. The protocol: as §1
A short description of series [10]: Maximum tolerance dose through intragastrical administration. Format: in vivo. The settings on record: mice, administrated intragastrically. The protocol:
Forty ICR mice, half female and half male, weighing […] were divided into four groups, 10 mice in each group. After the mice were fasted for 6 h, the compound to be tested was administrated intragastrically to each group at a volume of 0.3 ml/10 g by using a sterile plastic syringe. General physical signs and the deaths of the animals were record at 1, 2 and 4 h after the administration. The animals were then observed continuously for 14 days and their weights, physical signs and deaths were observed and recorded every day. Dead animals were dissected to see if there was any visible pathological change in the animal's viscera and pathological examination was performed on suspicious tissues and organs. A part of the experimental results is as follows.

Sequence of HDAC1 (Q13547 whole entry): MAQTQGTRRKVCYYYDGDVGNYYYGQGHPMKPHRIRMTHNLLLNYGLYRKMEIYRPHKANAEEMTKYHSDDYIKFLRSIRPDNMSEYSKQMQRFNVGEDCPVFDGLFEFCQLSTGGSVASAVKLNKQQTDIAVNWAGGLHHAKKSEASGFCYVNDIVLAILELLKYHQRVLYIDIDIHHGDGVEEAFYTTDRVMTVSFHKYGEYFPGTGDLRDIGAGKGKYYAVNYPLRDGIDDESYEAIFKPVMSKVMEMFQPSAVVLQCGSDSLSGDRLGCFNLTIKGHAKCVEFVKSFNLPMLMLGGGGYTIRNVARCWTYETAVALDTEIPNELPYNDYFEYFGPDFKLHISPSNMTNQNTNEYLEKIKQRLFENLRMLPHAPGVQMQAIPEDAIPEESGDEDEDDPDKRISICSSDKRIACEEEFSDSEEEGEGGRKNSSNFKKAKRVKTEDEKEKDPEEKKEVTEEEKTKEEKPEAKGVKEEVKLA

Regarding `CS(=O)(=O)CCNCc1ccc(-c2ccc3ncnc(Nc4ccc(C(=O)Nc5ccccc5N)cc4)c3c2)o1` [Compound V-19, N-(2-aminophenyl)-4-[6-(5-((2-(methylsulfonyl)ethylamino)methyl)furyl)quinazoline-4-amino]benzamide], the inhibition at 10 µM in [1] is 25.4%; in [2] it was 6.3%; in series [3], 58.3%; on HDAC1, 80.2%; in [4] it was 12.9%; in series [5], 54.3%. For the same compound, the inhibition at 10 µM in [6] was found to be 43%; in series [7], 50.2%; in series [8], 33%; in [9], 20.2%. In addition, the inhibition at 100 µM in series [1] is 49.9%; in series [2], 37.3%; in series [3] it was 80.9%; in [4] it was 40.1%; in [5], 85.8%; in series [6], 77%. For the same compound, the inhibition at 100 µM in [7] came out at 61%; in [8] it was 77%; in [9] it was 26.2%. Also, half-maximal inhibition in the series on HDACs (IC50) required 1.37 µM. Further, the results for the “Inhibition percentage (%) towards HDACs” value with HDACs (40 μM), in the series with HDACs (200 μM) and with HDACs (2 mM) were 22.7%, 57.8% and 72.3%, respectively. Moreover, the inhibition at 1 µM on HDAC1 was 47.6%. In addition, the “inhibitory activity against HDAC1 compared with MS-275” value against HDAC1 is given as “superior to that of MS-275”.
On to `CC(=O)Nc1ccc2ncnc(Nc3ccc(C(=O)Nc4ccccc4N)cc3)c2c1` [Compound V-21, N-(2-aminophenyl)-4-(6-acetamidoquinazoline-4-amino)benzamide], for which the inhibition at 10 µM in series [1] was 11%; in [2], 17.1%; in [3] it was 49.3%; at HDAC1, 86.9%; in [4] it was 9.5%; in [5], 52.2%. Further, the inhibition at 10 µM was determined as 65.2% in [6], 40.1% in series [7], 25.2% in series [8] and 12.5% in series [9]. Further, the inhibition at 100 µM in series [1] was determined as 68.1%; in [2] it was 96.4%; in series [3] it was 89.7%; in [4] it was 45.9%; in series [5], 85.2%; in [6], 75.6%. Also, the inhibition at 100 µM in series [7] came to 64.2%; in series [8] it was 88.8%; in [9] it was 33.3%. Moreover, the “Inhibition percentage (%) towards HDACs” value in the series with HDACs (40 μM) is listed as 10.1%; in the series with HDACs (200 μM), 39.1%; in the series with HDACs (2 mM), 79.2%. Moreover, the inhibition at 1 µM at HDAC1 was 55%. Further, the “inhibitory activity against HDAC1 compared with MS-275” value against HDAC1 is recorded as “superior to that of MS-275”.
In the case of `COc1cc2ncnc(Nc3ccc(C(=O)Nc4cc(-c5cccs5)ccc4N)cc3)c2cc1OC` [Compound V-23, N-[2-amino-5-(2-thienyl)phenyl]-4-(6,7-dimethoxyquinazoline-4-amino)benzamide], the inhibition at 10 µM is 1% in series [1]; -7.4% in series [2]; 4.7% in [3]; 55.8% at HDAC1; 7.3% in [4]; 12.8% in series [5]. The inhibition at 10 µM in [6] turned out to be 59.9%; in series [7], 7%; in [8] it was 21.5%; in series [9], 9.2%. Besides, the inhibition at 100 µM was 28.1% in series [1]; 6.2% in [2]; 52.7% in [3]; 5.9% in series [4]; 61.2% in series [5]; 93.1% in [6]. The inhibition at 100 µM was 40.2% in series [7], 42.9% in [8] and 4% in [9]. Besides, the “Inhibition percentage (%) towards HDACs” value in the series on HDACs (40 μM) was found to be 17.5%; in the series with HDACs (200 μM), 37.3%; with HDACs (2 mM), 40.7%. Moreover, on HDAC1, inhibition was half-maximal at 0.178 µM (IC50). The inhibition at 1 µM on HDAC1 stood at 19.2%.
On to `Nc1cnccc1NC(=O)c1ccc(CNc2ncnc3ccccc23)cc1` [Compound V-26], for which the inhibition at 10 µM is 11.7% in series [1]; 4.2% in [2]; 76.9% in series [3]; 88.4% at HDAC1; -0.2% in series [4]; 54% in [5]. Further, the inhibition at 10 µM in [6] was determined as 79.6%; in [7], 8.7%; in series [8] it was 16.6%; in [9] it was 5.1%. The inhibition at 100 µM stood at 63.5% in [1]; 63.7% in series [2]; 95.1% in [3]; 44.4% in series [4]; 88.2% in series [5]; 86.9% in [6]. Moreover, the values for the inhibition at 100 µM in series [7], in series [8] and in series [9] were 52.6%, 73.6% and 40.8%, respectively. Further, the “Inhibition percentage (%) towards HDACs” value was 11.4% with HDACs (40 μM), 40.2% in the series with HDACs (200 μM) and 82.4% in the series with HDACs (2 mM). Also, the inhibition at 1 µM at HDAC1 stood at 46.4%. Further, the “inhibitory activity against HDAC1 compared with MS-275” value against HDAC1 was “superior to that of MS-275”.
Consider `Nc1ccccc1NC(=O)c1ccc(CNc2ncnc3c(F)cccc23)cc1` [Compound V-43, N-(2-aminophenyl)-4-[(8-fluoroquinazoline-4-amino)methyl]benzamide], for which the inhibition at 10 µM in series [1] was 21.2%; in series [2] it was 41.2%; in series [3] it was 69.1%; in series [4] it was 19.1%; in series [5], 13.8%; in [6] it was 75.7%. The results for the inhibition at 10 µM in [7], in series [8] and in series [9] were 81.4%, 18.8% and 3.1%, respectively. In addition, the inhibition at 100 µM in series [1] was determined as 58.8%; in series [2], 85.5%; in [3] it was 96.8%; in series [4], 59.4%; in [5], 60.8%; in series [6], 89.6%. Besides, the inhibition at 100 µM turned out to be 89.4% in series [7], 86.4% in series [8] and 35.9% in series [9]. Besides, the maximum tolerance dose result in series [10] was “over 5000 mg/kg”.
For the compound `CC(=O)Nc1ccc2ncnc(NCc3ccc(C(=O)Nc4ccccc4N)cc3)c2c1` [Compound V-46, N-(2-aminophenyl)-4-[(6-acetamidoquinazoline-4-amino)methyl]benzamide], the inhibition at 10 µM was 17.5% in [1]; 7.7% in [2]; 14.8% in series [3]; 13.7% in series [4]; 27.3% in series [5]; 16.4% in [6]. Besides, the inhibition at 10 µM is -1.7% in series [7], 16.4% in [8] and 8.1% in series [9]. The inhibition at 100 µM in [1] is -5%; in series [2] it was 4.1%; in series [3], 1.9%; in series [4] it was -9%; in series [5] it was 18.9%; in series [6], 93.4%. Moreover, the inhibition at 100 µM is -2.4% in series [7], 4.1% in series [8] and 70.4% in [9]. The maximum tolerance dose result in [10] is given as “over 2000 mg/kg”.

As a reminder, the inhibition is the relative decrease from the control value, in per cent. The term IC50 denotes the point on the concentration scale where inhibition reaches its midpoint. High values mean weaker potency in that assay, low ones greater potency in that assay.
